In patent US11786492B2, “Therapeutic agent for phosphodiesterase inhibition and its related disorders” (Novalead Pharma Inc, priority 2017, dated 2023):

Legend:
[1] = system: HaCaT cells; experiment: Cell viability of HaCaT cells, Alamar blue; assay type: cell-based, human
Description: (§1) HaCaT cells were maintained in T-75 cm2 flask in Dulbecco's modified Eagle medium supplemented with FBS (10%), L-glutamine (2 mM), penicillin (100 ug/ml), streptomycin (100 ug/ml) at 37° C. in 5% CO2 incubator. Cell growth was maintained to 70-80% confluence for seeding and vehicle used was 1% DMSO. The cell viability was checked at various time points using Alamar blue and fluorescence readings were taken at excitation of 544 nm and emission of 590 nm.

[2] = system: Human IL-10; experiment: IL-10 release from stimulated PBMCs, ELISA; assay type: cell-based; settings: LPS 100 ng/mL, 18 hrs
Description: (§2) Fresh human blood from healthy volunteer was collected in anticoagulant (5 mM) ethylene diamine tetra acetic acid (EDTA) containing tubes. The growth medium used was RPMI-1640 medium (with 3% FBS) and incubated at 37° C. for 60 mins in a 5% CO2 incubator with vehicle used as 1% DMSO. The cell viability was checked at various time points using Alamar blue and fluorescence readings were taken at excitation of 544 nm and emission of 590 nm.
(§3) PBMCs were stimulated with different stimulators as follows: • a. Cells were exposed to stimulator LPS at 100 ng/mL for 18 hrs to stimulate TNF-α, IL-6, IFN-γ, IL10, IL-1β • b. Cells were exposed to stimulator IFN-γ+LPS at 100 ng/mL+1 μg/mL for 18 hrs to stimulate IL-12 • c. Cells were exposed to stimulator PMA+Ionomycin at 50 ng/mL+1 μg/mL for 18 hrs to stimulate IL-23, IL-22, IL-17A, IL-17F
(§4) After 18 hrs supernatants were collected and centrifuged to remove any cell debris and aliquots were used for ELISA.

[3] = system: Human IL-12; experiment: IL-12 release from stimulated PBMCs, ELISA; assay type: cell-based; settings: IFN-γ+LPS, 18 hrs
Description: as §2, §3, §4

[4] = system: Human IL-17F; experiment: IL-17F release from stimulated PBMCs, ELISA; assay type: cell-based; settings: PMA+Ionomycin, 18 hrs
Description: as §2, §3, §4

[5] = system: TNF-α; experiment: TNF-α release from stimulated HaCaT cells, ELISA; assay type: cell-based, human; settings: IFN-γ 50 ng/mL, 48 hrs
Description: as §1
(§5) HaCaT cells were stimulated with different stimulators as follows: • a. Cells were exposed to stimulator LPS at 1 μg/mL for 48 hrs to stimulate IL-1β • b. Cells were exposed to stimulator IFN-γ at 50 ng/mL for 48 hrs to stimulate TNF-α, IL-6
(§6) After 48 hrs supernatants were collected and centrifuged to remove any cell debris and aliquots were used for ELISA.

[6] = system: IL-6; experiment: IL-6 release from stimulated HaCaT cells, ELISA; assay type: cell-based, human; settings: IFN-γ 50 ng/mL, 48 hrs
Description: as §1, §5, §6

[7] = molecular target: PDE2A (Homo sapiens, UniProt O00408); experiment: Fluorescence polarization assay PDE2A; assay type: biochemical; settings: substrate cGMP
Description: (§7) An experiment to check inhibition of various subtypes of the target Phosphodiesterase (PDE) enzyme in in-vitro assay was performed. […] PDE1A, PDE2A, PDE4A, PDE4B, PDE4C, PDE4D, PDE5A, PDE7A, PDE9A, PDE10A.

[8] = molecular target: PDE4B (Homo sapiens, UniProt Q07343); experiment: Fluorescence polarization assay PDE4B; assay type: biochemical; settings: substrate cAMP
Description: as §7

[9] = system: Human IFN-γ; experiment: IFN-γ release from stimulated PBMCs, ELISA; assay type: cell-based; settings: LPS 100 ng/mL, 18 hrs
Description: as §2, §3, §4

[10] = system: Human IL-17A; experiment: IL-17A release from stimulated PBMCs, ELISA; assay type: cell-based; settings: PMA+Ionomycin, 18 hrs
Description: as §2, §3, §4

[11] = system: Human TNF-α; experiment: TNF-α release from stimulated PBMCs, ELISA; assay type: cell-based; settings: LPS 100 ng/mL, 18 hrs
Description: as §2, §3, §4

[12] = molecular target: PDE1A (Homo sapiens, UniProt P54750); experiment: Fluorescence polarization assay PDE1A; assay type: biochemical; settings: substrate cGMP, Ca-CaM
Description: as §7

[13] = system: human PBMCs; experiment: Cell viability of human PBMCs, Alamar blue; assay type: cell-based
Description: as §2

[14] = system: Human IL-6; experiment: IL-6 release from stimulated PBMCs, ELISA; assay type: cell-based; settings: LPS 100 ng/mL, 18 hrs
Description: as §2, §3, §4

[15] = system: Human IL-22; experiment: IL-22 release from stimulated PBMCs, ELISA; assay type: cell-based; settings: PMA+Ionomycin, 18 hrs
Description: as §2, §3, §4

[16] = system: Human IL-1β; experiment: IL-1β release from stimulated PBMCs, ELISA; assay type: cell-based; settings: LPS 100 ng/mL, 18 hrs
Description: as §2, §3, §4

PDE1A, sequence (P54750 whole entry, species assumed): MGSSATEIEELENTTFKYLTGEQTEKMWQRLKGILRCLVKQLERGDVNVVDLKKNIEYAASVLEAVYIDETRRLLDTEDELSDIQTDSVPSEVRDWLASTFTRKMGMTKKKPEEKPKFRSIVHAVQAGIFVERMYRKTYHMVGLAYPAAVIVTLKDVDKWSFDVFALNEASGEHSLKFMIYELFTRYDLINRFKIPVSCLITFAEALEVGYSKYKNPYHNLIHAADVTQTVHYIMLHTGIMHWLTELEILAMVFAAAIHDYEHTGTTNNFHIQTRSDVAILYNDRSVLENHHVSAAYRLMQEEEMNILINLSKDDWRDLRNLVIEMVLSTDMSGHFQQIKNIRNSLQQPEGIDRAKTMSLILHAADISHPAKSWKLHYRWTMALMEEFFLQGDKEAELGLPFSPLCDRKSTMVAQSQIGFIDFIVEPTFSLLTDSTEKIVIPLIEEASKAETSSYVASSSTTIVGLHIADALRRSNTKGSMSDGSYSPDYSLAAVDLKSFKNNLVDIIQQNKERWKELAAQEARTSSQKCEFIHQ
PDE4B, sequence (Q07343 whole entry, species assumed): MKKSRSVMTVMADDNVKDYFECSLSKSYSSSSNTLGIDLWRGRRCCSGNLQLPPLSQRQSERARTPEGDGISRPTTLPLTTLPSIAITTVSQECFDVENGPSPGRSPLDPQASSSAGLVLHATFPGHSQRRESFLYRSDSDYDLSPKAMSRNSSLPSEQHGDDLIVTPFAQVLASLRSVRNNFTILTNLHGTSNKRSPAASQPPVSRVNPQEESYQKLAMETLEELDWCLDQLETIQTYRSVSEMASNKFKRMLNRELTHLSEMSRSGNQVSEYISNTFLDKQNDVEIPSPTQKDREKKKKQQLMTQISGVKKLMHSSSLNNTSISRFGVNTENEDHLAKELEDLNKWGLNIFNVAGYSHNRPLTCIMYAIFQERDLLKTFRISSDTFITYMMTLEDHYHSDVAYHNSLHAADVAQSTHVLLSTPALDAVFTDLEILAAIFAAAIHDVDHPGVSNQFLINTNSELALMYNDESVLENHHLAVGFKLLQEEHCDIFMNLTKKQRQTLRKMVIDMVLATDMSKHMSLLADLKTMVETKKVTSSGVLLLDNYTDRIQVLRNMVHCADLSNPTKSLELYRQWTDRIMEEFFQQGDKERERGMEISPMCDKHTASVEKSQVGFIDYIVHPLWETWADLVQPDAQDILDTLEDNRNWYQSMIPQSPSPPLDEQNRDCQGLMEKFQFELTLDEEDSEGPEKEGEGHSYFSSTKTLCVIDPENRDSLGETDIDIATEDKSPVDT
PDE2A, sequence (O00408 whole entry, species assumed): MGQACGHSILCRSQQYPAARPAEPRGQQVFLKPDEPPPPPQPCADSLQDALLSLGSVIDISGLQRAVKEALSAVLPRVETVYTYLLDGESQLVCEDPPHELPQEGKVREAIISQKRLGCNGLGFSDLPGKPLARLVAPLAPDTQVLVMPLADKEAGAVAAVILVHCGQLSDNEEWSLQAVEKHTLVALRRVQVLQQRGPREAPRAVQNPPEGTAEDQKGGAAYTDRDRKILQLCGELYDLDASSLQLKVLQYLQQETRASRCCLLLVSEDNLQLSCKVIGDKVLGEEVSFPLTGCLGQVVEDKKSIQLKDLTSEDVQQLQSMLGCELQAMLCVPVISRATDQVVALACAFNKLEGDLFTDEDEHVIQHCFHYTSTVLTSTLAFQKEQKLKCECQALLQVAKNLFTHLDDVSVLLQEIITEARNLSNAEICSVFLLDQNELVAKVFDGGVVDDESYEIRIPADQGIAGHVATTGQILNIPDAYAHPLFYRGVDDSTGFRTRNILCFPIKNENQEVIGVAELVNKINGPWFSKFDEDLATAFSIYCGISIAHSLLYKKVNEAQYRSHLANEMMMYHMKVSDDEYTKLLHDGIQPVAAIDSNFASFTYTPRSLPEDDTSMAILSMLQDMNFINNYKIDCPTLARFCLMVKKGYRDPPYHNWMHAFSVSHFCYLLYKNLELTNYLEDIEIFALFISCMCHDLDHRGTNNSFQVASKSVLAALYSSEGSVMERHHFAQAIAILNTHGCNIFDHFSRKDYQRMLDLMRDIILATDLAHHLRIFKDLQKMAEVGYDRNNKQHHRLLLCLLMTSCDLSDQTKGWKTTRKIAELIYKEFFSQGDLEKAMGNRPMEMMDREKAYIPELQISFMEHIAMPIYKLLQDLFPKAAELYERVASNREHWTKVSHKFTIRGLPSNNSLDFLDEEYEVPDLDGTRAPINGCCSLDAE

IC50 [7]: 12 µM | IC50 [8]: > 500 µM | IC50 [12]: 96.1 µM
Compound: O=C(Nc1ncc([N+](=O)[O-])s1)c1ccccc1O [Tizoxanide]
% Viability (±S.E.M.) ([1]; 0.1 μM, 24 hrs): 76 ± 6% | % Viability (±S.E.M.) ([1]; 0.1 μM, 48 hrs): 114 ± 2% | % Viability (±S.E.M.) ([1]; 0.1 μM, 72 hrs): 112 ± 6% | % Viability (±S.E.M.) ([1]; 1 μM, 24 hrs): 74 ± 6% | % Viability (±S.E.M.) ([1]; 1 μM, 48 hrs): 91 ± 5% | % Viability (±S.E.M.) ([1]; 1 μM, 72 hrs): 91 ± 2% | % Viability (±S.E.M.) ([1]; 10 μM, 24 hrs): 34 ± 1% | % Viability (±S.E.M.) ([1]; 10 μM, 48 hrs): 35 ± 0% | % Viability (±S.E.M.) ([1]; 10 μM, 72 hrs): 43 ± 1% | % Viability (±S.E.M.) ([1]; 50 μM, 24 hrs): 24 ± 1% | % Viability (±S.E.M.) ([1]; 50 μM, 48 hrs): 20 ± 0% | % Viability (±S.E.M.) ([1]; 50 μM, 72 hrs): 25 ± 0% | % Viability (±S.E.M.) ([1]; 100 μM, 24 hrs): 20 ± 0% | % Viability (±S.E.M.) ([1]; 100 μM, 48 hrs): 13 ± 0% | % Viability (±S.E.M.) ([1]; 100 μM, 72 hrs): 20 ± 0% | Concentration which exhibited cell viability of 70% ([1]; HaCaT cells, maximum concentration for stimulation study): 1 µM | Human IL-10 concentration ([2]; 1 μM): 1591 pg/mL | Human IL-10 concentration ([2]; 10 μM): 493 pg/mL | Human IL-10 concentration ([2]; 25 μM): 76 pg/mL | Human IL-10 concentration ([2]; 50 μM): 42 pg/mL | Human IL-12 concentration ([3]; 1 μM): 4715 pg/mL | Human IL-12 concentration ([3]; 10 μM): 1401 pg/mL | Human IL-12 concentration ([3]; 25 μM): 381 pg/mL | Human IL-12 concentration ([3]; 50 μM): 101 pg/mL | Human IL-17F concentration ([4]; 1 μM): 151 pg/mL | Human IL-17F concentration ([4]; 10 μM): 0 pg/mL | Human IL-17F concentration ([4]; 25 μM): 0 pg/mL | Human IL-17F concentration ([4]; 50 μM): 0 pg/mL | TNF-α Conc. ([5]; 0.1 μM): 2.9 ± 0.2 pg/mL | TNF-α Conc. ([5]; 0.5 μM): 3.2 ± 0.1 pg/mL | TNF-α Conc. ([5]; 1 μM): 2.3 ± 0.5 pg/mL | IL-6 Conc. ([6]; 0.1 μM): 87 ± 2 pg/mL | IL-6 Conc. ([6]; 0.5 μM): 80 ± 2 pg/mL | IL-6 Conc. ([6]; 1 μM): 78 ± 6 pg/mL | Human IFN-γ concentration ([9]; 1 μM): 204 pg/mL | Human IFN-γ concentration ([9]; 10 μM): 111 pg/mL | Human IFN-γ concentration ([9]; 25 μM): 139 pg/mL | Human IFN-γ concentration ([9]; 50 μM): 191 pg/mL | Human IL-17A concentration ([10]; 1 μM): 39 pg/mL | Human IL-17A concentration ([10]; 10 μM): 0 pg/mL | Human IL-17A concentration ([10]; 25 μM): 0 pg/mL | Human IL-17A concentration ([10]; 50 μM): 0 pg/mL | Human TNF-α concentration ([11]; 1 μM): 5351 pg/mL | Human TNF-α concentration ([11]; 10 μM): 3244 pg/mL | Human TNF-α concentration ([11]; 25 μM): 3489 pg/mL | Human TNF-α concentration ([11]; 50 μM): 2440 pg/mL | % Viability (±S.E.M.) ([13]; 0.01 μM, 24 hrs): 91 ± 3% | % Viability (±S.E.M.) ([13]; 0.01 μM, 48 hrs): 96 ± 3% | % Viability (±S.E.M.) ([13]; 0.01 μM, 72 hrs): 115 ± 1% | % Viability (±S.E.M.) ([13]; 1 μM, 24 hrs): 84 ± 2% | % Viability (±S.E.M.) ([13]; 1 μM, 48 hrs): 101 ± 4% | % Viability (±S.E.M.) ([13]; 1 μM, 72 hrs): 102 ± 3% | % Viability (±S.E.M.) ([13]; 100 μM, 24 hrs): 91 ± 5% | % Viability (±S.E.M.) ([13]; 100 μM, 48 hrs): 64 ± 2% | % Viability (±S.E.M.) ([13]; 100 μM, 72 hrs): 25 ± 2% | Concentration which exhibited cell viability of 70% ([13]; PBMCs, maximum concentration for stimulation study): 50 µM | Human IL-6 concentration ([14]; 1 μM): 6122 pg/mL | Human IL-6 concentration ([14]; 10 μM): 5225 pg/mL | Human IL-6 concentration ([14]; 25 μM): 3428 pg/mL | Human IL-6 concentration ([14]; 50 μM): 2086 pg/mL | Human IL-22 concentration ([15]; 1 μM): 7858 pg/mL | Human IL-22 concentration ([15]; 10 μM): 1189 pg/mL | Human IL-22 concentration ([15]; 25 μM): 280 pg/mL | Human IL-22 concentration ([15]; 50 μM): 0 pg/mL | Human IL-1β concentration ([16]; 1 μM): 4577 pg/mL | Human IL-1β concentration ([16]; 10 μM): 4118 pg/mL | Human IL-1β concentration ([16]; 25 μM): 4168 pg/mL | Human IL-1β concentration ([16]; 50 μM): 2522 pg/mL
